PubChem BioAssay AID2060489 (Molecular Pharmacology Branch, DTP, NCI, 2025)

System: 922993-354-T-J3-PDC complex spheroids, viability
Assay: Anticancer human tumor 922993-354-T-J3-PDC patient-derived endometrial carcinoma cell line growth inhibition [GQUAD]
Details: for IC50: curve of first compound; for viability, T/C: stronger effect = lower value
Method in brief: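 Viability of tumor cells grown as complex spheroids with endothelial and stromal cells, exposed to drug combinations. Top concentration at or near clinical Cmax (else 10 microM), diluted in half-log increments.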

[1] = second compound 0.0316 µM, first compound 0.0316 µM
[2] = second compound 0.0316 µM, first compound 0.1 µM
[3] = second compound 0.0316 µM, first compound 0.316 µM
[4] = second compound 0.0316 µM, first compound 1 µM
[5] = second compound 0.0316 µM, first compound 3.16 µM
[6] = second compound 0.0316 µM, first compound 10 µM
[7] = second compound 0.1 µM, first compound 0.0316 µM
[8] = second compound 0.1 µM, first compound 0.1 µM
[9] = second compound 0.1 µM, first compound 0.316 µM
[10] = second compound 0.1 µM, first compound 1 µM
[11] = second compound 0.1 µM, first compound 3.16 µM
[12] = second compound 0.1 µM, first compound 10 µM
[13] = second compound 0.316 µM, first compound 0.0316 µM
[14] = second compound 0.316 µM, first compound 0.1 µM
[15] = second compound 0.316 µM, first compound 0.316 µM
[16] = second compound 0.316 µM, first compound 1 µM
[17] = second compound 0.316 µM, first compound 3.16 µM
[18] = second compound 0.316 µM, first compound 10 µM
[19] = second compound 1 µM, first compound 0.0316 µM
[20] = second compound 1 µM, first compound 0.1 µM
[21] = second compound 1 µM, first compound 0.316 µM
[22] = second compound 1 µM, first compound 1 µM
[23] = second compound 1 µM, first compound 3.16 µM
[24] = second compound 1 µM, first compound 10 µM
[25] = second compound 3.16 µM, first compound 0.0316 µM
[26] = second compound 3.16 µM, first compound 0.1 µM
[27] = second compound 3.16 µM, first compound 0.316 µM
[28] = second compound 3.16 µM, first compound 1 µM
[29] = second compound 3.16 µM, first compound 3.16 µM
[30] = second compound 3.16 µM, first compound 10 µM
[31] = second compound 10 µM, first compound 0.0316 µM
[32] = second compound 10 µM, first compound 0.1 µM
[33] = second compound 10 µM, first compound 0.316 µM
[34] = second compound 10 µM, first compound 1 µM
[35] = second compound 10 µM, first compound 3.16 µM
[36] = second compound 10 µM, first compound 10 µM
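Also: spheroids exposed to compounds for seven days.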
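For viability, T/C in this document: 100% = DMSO vehicle control viability.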

C=CCn1c(=O)c2cnc(Nc3ccc(N4CCN(C)CC4)cc3)nc2n1-c1cccc(C(C)(C)O)n1 + CN(C)c1ccc(Nc2c3ccc(NC(=O)CCN4CCCC4)cc3nc3cc(NC(=O)CCN4CCCC4)ccc23)cc1 gave an IC50 (second compound 0.0316 µM) of 4.2 µM, an IC50 (second compound 0.1 µM) of 4.2 µM and an IC50 (second compound 0.316 µM) of 4.34 µM. The IC50 (second compound 1 µM) was 5.26 µM, the IC50 (second compound 3.16 µM) was 5.16 µM and the IC50 (second compound 10 µM) was 6.53 µM. For the same compound, the viability, T/C [1] was 103%, the viability, T/C [2] was 80.9% and the viability, T/C [3] was 87.4%. For the same compound, the viability, T/C [4] was 74.5%, the viability, T/C [5] was 67.7% and the viability, T/C [6] was 12.4%. The viability, T/C [7] was 95.3%, the viability, T/C [8] was 87.1% and the viability, T/C [9] was 88%. It also gave a viability, T/C [10] of 88.6%, a viability, T/C [11] of 61.8% and a viability, T/C [12] of 13.9%. It also gave a viability, T/C [13] of 93.6%, a viability, T/C [14] of 101% and a viability, T/C [15] of 73.2%. The viability, T/C [16] was 81.8%, the viability, T/C [17] was 65.6% and the viability, T/C [18] was 16.9%. It also gave a viability, T/C [19] of 110%, a viability, T/C [20] of 121% and a viability, T/C [21] of 95.3%. The viability, T/C [22] was 96.5%, the viability, T/C [23] was 79.1% and the viability, T/C [24] was 17%. It also gave a viability, T/C [25] of 100%, a viability, T/C [26] of 85.5% and a viability, T/C [27] of 113%. It also gave a viability, T/C [28] of 104%, a viability, T/C [29] of 74.6% and a viability, T/C [30] of 16.6%. It also gave a viability, T/C [31] of 111%, a viability, T/C [32] of 109% and a viability, T/C [33] of 108%. It also gave a viability, T/C [34] of 110%, a viability, T/C [35] of 87.2% and a viability, T/C [36] of 28.2%.

CC(C)(O)C1CCC(Nc2ccc3ncc(-c4cccc(C(F)(F)F)c4)n3n2)CC1 (stereo not drawn) + CN(C)c1ccc(Nc2c3ccc(NC(=O)CCN4CCCC4)cc3nc3cc(NC(=O)CCN4CCCC4)ccc23)cc1 was tested, and the IC50 (second compound 0.0316 µM) was greater than 10 µM, the IC50 (second compound 0.1 µM) was greater than 10 µM and the IC50 (second compound 0.316 µM) was greater than 10 µM. The IC50 (second compound 1 µM) was greater than 10 µM, the IC50 (second compound 3.16 µM) was greater than 10 µM and the IC50 (second compound 10 µM) was greater than 10 µM. For the same compound, the viability, T/C [1] was 78.5%, the viability, T/C [2] was 92.8% and the viability, T/C [3] was 99.9%. The viability, T/C [4] was 80.2%, the viability, T/C [5] was 85.1% and the viability, T/C [6] was 92.3%. The viability, T/C [7] was 100%, the viability, T/C [8] was 91% and the viability, T/C [9] was 88.6%. For the same compound, the viability, T/C [10] was 87.6%, the viability, T/C [11] was 76.6% and the viability, T/C [12] was 81.2%. The viability, T/C [13] was 108%, the viability, T/C [14] was 83% and the viability, T/C [15] was 96.5%. The viability, T/C [16] was 89.7%, the viability, T/C [17] was 58% and the viability, T/C [18] was 63.3%. The viability, T/C [19] was 69.5%, the viability, T/C [20] was 96.2% and the viability, T/C [21] was 79%. It also gave a viability, T/C [22] of 75.2%, a viability, T/C [23] of 78.9% and a viability, T/C [24] of 61.2%. The viability, T/C [25] was 92%, the viability, T/C [26] was 95% and the viability, T/C [27] was 90.4%. It also gave a viability, T/C [28] of 94.3%, a viability, T/C [29] of 85% and a viability, T/C [30] of 74.4%. It also gave a viability, T/C [31] of 120%, a viability, T/C [32] of 140% and a viability, T/C [33] of 103%. For the same compound, the viability, T/C [34] was 88.8%, the viability, T/C [35] was 78.3% and the viability, T/C [36] was 55%.

CC1COCCN1c1cc(C2(S(C)(=N)=O)CC2)nc(-c2ccnc3[nH]ccc23)n1 (stereo not drawn) + Cc1[nH]c2ccc(F)cc2c1-c1nc2c3cccnc3c3ncccc3c2[nH]1 was tested, and the IC50 (second compound 0.0316 µM) was greater than 10 µM, the IC50 (second compound 0.1 µM) was greater than 10 µM and the IC50 (second compound 0.316 µM) was greater than 10 µM. For the same compound, the IC50 (second compound 1 µM) was greater than 10 µM, the IC50 (second compound 3.16 µM) was greater than 10 µM and the IC50 (second compound 10 µM) was greater than 10 µM. The viability, T/C [1] was 103%, the viability, T/C [2] was 96.9% and the viability, T/C [3] was 110%. It also gave a viability, T/C [4] of 83.9%, a viability, T/C [5] of 114% and a viability, T/C [6] of 60.6%. It also gave a viability, T/C [7] of 110%, a viability, T/C [8] of 107% and a viability, T/C [9] of 138%. For the same compound, the viability, T/C [10] was 132%, the viability, T/C [11] was 106% and the viability, T/C [12] was 67.5%. For the same compound, the viability, T/C [13] was 135%, the viability, T/C [14] was 117% and the viability, T/C [15] was 109%. The viability, T/C [16] was 124%, the viability, T/C [17] was 79.6% and the viability, T/C [18] was 67%. For the same compound, the viability, T/C [19] was 118%, the viability, T/C [20] was 106% and the viability, T/C [21] was 109%. It also gave a viability, T/C [22] of 106%, a viability, T/C [23] of 106% and a viability, T/C [24] of 80.1%. It also gave a viability, T/C [25] of 92.3%, a viability, T/C [26] of 124% and a viability, T/C [27] of 87.2%. For the same compound, the viability, T/C [28] was 104%, the viability, T/C [29] was 88.8% and the viability, T/C [30] was 81.4%. For the same compound, the viability, T/C [31] was 138%, the viability, T/C [32] was 104% and the viability, T/C [33] was 128%. It also gave a viability, T/C [34] of 96.3%, a viability, T/C [35] of 101% and a viability, T/C [36] of 89%.

For COc1ccc([C@@H](O)c2cc(-c3ncnc4cc(N5CCOCC5)ccc34)c(F)cc2Cl)nn1 + Cc1[nH]c2ccc(F)cc2c1-c1nc2c3cccnc3c3ncccc3c2[nH]1, the IC50 (second compound 0.0316 µM) was 9.14 µM, the IC50 (second compound 0.1 µM) was greater than 10 µM and the IC50 (second compound 0.316 µM) was 8.51 µM. It also gave an IC50 (second compound 1 µM) greater than 10 µM, an IC50 (second compound 3.16 µM) greater than 10 µM and an IC50 (second compound 10 µM) greater than 10 µM. It also gave a viability, T/C [1] of 107%, a viability, T/C [2] of 112% and a viability, T/C [3] of 92.9%. For the same compound, the viability, T/C [4] was 90%, the viability, T/C [5] was 95.8% and the viability, T/C [6] was 45.7%. It also gave a viability, T/C [7] of 123%, a viability, T/C [8] of 115% and a viability, T/C [9] of 114%. For the same compound, the viability, T/C [10] was 94.9%, the viability, T/C [11] was 115% and the viability, T/C [12] was 58.1%. It also gave a viability, T/C [13] of 106%, a viability, T/C [14] of 116% and a viability, T/C [15] of 94%. For the same compound, the viability, T/C [16] was 100%, the viability, T/C [17] was 86.8% and the viability, T/C [18] was 43.4%. The viability, T/C [19] was 114%, the viability, T/C [20] was 108% and the viability, T/C [21] was 72.2%. For the same compound, the viability, T/C [22] was 88.6%, the viability, T/C [23] was 97.1% and the viability, T/C [24] was 68.2%. The viability, T/C [25] was 101%, the viability, T/C [26] was 101% and the viability, T/C [27] was 93.9%. The viability, T/C [28] was 103%, the viability, T/C [29] was 88.9% and the viability, T/C [30] was 66.1%. The viability, T/C [31] was 84.6%, the viability, T/C [32] was 88.6% and the viability, T/C [33] was 109%. It also gave a viability, T/C [34] of 90.8%, a viability, T/C [35] of 108% and a viability, T/C [36] of 61.6%.
